# Test results: patent US9828345B2, “Phenylpyrazole derivatives as potent ROCK1 and ROCK2 inhibitors” (BRISTOL-MYERS SQUIBB COMPANY, priority 2013, dated 2017)
# Where two headings read alike, the source gives them in different places.
# How the values were obtained:
# ROCK1 = ROCK1 (Homo sapiens, UniProt Q13464); assay: ROCK assay (Caliper LABCHIP peptide phosphorylation), ROCK1; assay type: biochemical; details: 5 μM ATP, 1.5 μM peptide substrate
# ROCK2 = ROCK2 (Homo sapiens, UniProt O75116); assay: ROCK assay (Caliper LABCHIP peptide phosphorylation), ROCK2; assay type: biochemical; details: 5 μM ATP, 1.5 μM peptide substrate
# [1] = system: spontaneously hypertensive rat, renal hypertensive rat and deoxycortisone acetate salt hypertensive rat models; details: cited from earlier work
# neointimal formation = details: rats; cited from earlier work
# [2] = system: congestive heart failure in Dahl salt-sensitive rats; details: rat, in vivo; cited from earlier work
# [3] = system: IL-1 beta-induced coronary stenosis; details: long term treatment; cited from earlier work
# rat stroke model = details: in vivo; cited from earlier work
# Chain of ROCK2 (O75116 whole entry, species assumed): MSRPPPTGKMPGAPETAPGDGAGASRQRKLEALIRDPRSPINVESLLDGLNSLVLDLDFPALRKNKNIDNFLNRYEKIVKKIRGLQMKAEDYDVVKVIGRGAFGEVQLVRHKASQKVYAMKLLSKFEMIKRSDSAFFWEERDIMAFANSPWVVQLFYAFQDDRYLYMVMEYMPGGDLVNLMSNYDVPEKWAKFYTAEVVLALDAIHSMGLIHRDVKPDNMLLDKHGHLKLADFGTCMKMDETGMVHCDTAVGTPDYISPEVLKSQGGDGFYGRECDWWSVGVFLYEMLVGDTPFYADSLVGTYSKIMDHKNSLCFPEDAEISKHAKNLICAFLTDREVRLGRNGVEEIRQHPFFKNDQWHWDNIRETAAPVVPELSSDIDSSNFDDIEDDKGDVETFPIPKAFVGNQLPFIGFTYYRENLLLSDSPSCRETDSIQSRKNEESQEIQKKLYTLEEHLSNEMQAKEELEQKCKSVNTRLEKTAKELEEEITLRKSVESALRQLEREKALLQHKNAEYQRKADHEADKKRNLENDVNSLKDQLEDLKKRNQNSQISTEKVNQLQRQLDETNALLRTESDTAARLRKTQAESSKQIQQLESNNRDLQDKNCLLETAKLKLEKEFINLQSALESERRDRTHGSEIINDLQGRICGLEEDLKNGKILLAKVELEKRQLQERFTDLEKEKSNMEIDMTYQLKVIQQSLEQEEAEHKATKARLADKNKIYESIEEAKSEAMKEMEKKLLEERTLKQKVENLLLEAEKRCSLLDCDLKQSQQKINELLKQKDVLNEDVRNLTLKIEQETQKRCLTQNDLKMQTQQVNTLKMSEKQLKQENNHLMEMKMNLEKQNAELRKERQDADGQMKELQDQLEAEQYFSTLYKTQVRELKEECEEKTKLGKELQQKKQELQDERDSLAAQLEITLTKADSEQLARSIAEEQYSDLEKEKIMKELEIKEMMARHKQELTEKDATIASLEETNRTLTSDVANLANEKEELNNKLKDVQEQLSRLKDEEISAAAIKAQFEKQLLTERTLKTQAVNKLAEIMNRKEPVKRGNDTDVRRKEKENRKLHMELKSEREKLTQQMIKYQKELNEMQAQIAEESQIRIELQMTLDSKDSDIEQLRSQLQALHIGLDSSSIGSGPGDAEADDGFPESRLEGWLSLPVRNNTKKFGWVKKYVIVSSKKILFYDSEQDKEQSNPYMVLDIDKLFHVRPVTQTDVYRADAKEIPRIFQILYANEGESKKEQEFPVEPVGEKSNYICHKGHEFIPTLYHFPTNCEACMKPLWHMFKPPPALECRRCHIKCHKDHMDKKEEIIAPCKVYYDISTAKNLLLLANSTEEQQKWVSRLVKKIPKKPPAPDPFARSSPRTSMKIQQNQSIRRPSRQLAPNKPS
# Chain of ROCK1 (Q13464 whole entry, species assumed): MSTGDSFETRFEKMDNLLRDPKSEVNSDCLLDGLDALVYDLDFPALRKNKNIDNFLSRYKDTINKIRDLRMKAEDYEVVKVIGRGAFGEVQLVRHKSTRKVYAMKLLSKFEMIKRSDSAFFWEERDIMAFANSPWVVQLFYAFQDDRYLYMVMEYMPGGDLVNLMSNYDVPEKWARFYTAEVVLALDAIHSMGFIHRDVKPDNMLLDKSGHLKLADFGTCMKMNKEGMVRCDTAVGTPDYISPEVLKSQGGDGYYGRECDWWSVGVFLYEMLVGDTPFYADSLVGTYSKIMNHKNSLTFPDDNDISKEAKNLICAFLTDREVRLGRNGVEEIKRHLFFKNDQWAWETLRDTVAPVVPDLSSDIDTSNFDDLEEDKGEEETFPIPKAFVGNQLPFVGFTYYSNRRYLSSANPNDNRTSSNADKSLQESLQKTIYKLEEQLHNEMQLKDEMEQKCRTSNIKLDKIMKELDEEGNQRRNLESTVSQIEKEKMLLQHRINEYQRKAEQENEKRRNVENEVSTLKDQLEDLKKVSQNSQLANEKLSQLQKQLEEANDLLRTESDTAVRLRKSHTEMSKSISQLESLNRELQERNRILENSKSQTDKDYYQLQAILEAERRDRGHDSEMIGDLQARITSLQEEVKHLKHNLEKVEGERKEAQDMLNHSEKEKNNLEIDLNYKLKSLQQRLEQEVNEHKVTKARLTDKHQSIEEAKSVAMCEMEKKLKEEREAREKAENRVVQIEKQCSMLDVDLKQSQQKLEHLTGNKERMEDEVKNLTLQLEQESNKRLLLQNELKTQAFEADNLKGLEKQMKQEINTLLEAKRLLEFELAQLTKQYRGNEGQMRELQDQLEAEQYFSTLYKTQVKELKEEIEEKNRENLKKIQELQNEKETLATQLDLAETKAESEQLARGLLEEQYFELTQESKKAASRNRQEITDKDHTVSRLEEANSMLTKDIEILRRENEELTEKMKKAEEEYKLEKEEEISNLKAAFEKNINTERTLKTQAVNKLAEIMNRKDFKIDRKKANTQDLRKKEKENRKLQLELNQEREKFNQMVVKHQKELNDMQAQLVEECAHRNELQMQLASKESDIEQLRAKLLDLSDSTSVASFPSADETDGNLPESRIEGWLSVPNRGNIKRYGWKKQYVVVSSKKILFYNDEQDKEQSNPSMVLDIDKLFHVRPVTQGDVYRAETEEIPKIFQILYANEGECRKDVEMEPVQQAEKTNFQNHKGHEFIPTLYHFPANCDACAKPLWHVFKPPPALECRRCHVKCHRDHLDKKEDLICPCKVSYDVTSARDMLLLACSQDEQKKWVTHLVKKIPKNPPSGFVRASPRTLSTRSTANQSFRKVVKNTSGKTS
SMILES,IC50 (ROCK1) [nM],IC50 (ROCK2) [nM],also measured
"COc1cc(NC(=O)[C@H](N)Cc2cccc(C(F)(F)F)c2)ccc1-c1cn[nH]c1 [Example 11, (R)-2-amino-N-(3-methoxy-4-(1H-pyrazol-4-yl)phenyl)-3-(3-(trifluoromethyl)phenyl)propanamide]",50,14.3,
"COc1cc(NC(=O)[C@H](N)Cc2ccccc2C(F)(F)F)ccc1-c1cn[nH]c1 [Example 12, (R)-2-amino-N-(3-methoxy-4-(1H-pyrazol-4-yl)phenyl)-3-(2-(trifluoromethyl)phenyl)propanamide]",19.9,23.6,
"COc1cc(NC(=O)[C@H](N)Cc2ccc(-c3ccccc3)cc2)ccc1-c1cn[nH]c1 [Example 13, (R)-3-([1,1′-biphenyl]-4-yl)-2-amino-N-(3-methoxy-4-(1H-pyrazol-4-yl)phenyl)propanamide]",68.4,10.3,
"O=C(Cc1ccccc1Cl)Nc1ccc(-c2cn[nH]c2)cc1 [Example 29, N-(4-(1H-Pyrazol-4-yl)phenyl)-2-(2-chlorophenyl)acetamide]",19.6,4.06,
"C[C@@H](N)[C@H]1CC[C@H](C(=O)Nc2ccncc2)CC1 [Example Y-27632, Y-27632]",,,"blood pressure ([1]; control rats): only a minor effect on blood pressure; blood pressure ([1]; three rat models of hypertension): significantly decrease blood pressure; neointimal formation (neointimal formation): inhibited neointimal formation; ventricular hypertrophy, fibrosis and function [2]: improve ventricular hypertrophy, fibrosis and function"
O=S(=O)(c1cccc2cnccc12)N1CCCNCC1 [fasudil],,,coronary constrictive remodeling [3]: promote a regression of coronary constrictive remodeling; coronary stenosis [3]: progressively reduce coronary stenosis; infarct size and neurologic deficit (rat stroke model): reduce both the infarct size and neurologic deficit

# Further compounds by falling IC50 (ROCK1), results first:
IC50 (ROCK1) [nM],IC50 (ROCK2) [nM],SMILES,also measured
874,342,"CN(C)CCOc1cc(-c2cn[nH]c2)c(F)cc1NC(=O)[C@H](N)CCc1ccccc1 [Example 27, (R)-2-Amino-N-(2-(2-(dimethylamino)ethoxy)-5-fluoro-4-(1H-pyrazol-4-yl)phenyl)-4-phenylbutanamide]",
232,167,"COc1cc(NC(=O)[C@H](N)CCc2ccccc2)ccc1-c1c[nH]nc1C [Example 30, (R)-2-Amino-N-(3-methoxy-4-(3-methyl-1H-pyrazol-4-yl)phenyl)-4-phenylbutanamide]",
111,8.51,"O=C(Cc1ccccc1Cl)Nc1ccc(-c2cn[nH]c2)cc1OCCN1CCCC1 [Example 23, N-(4-(1H-Pyrazol-4-yl)-2-(2-(pyrrolidin-1-yl)ethoxy)phenyl)-2-(2-chlorophenyl)acetamide]",
42.5,17.8,"N[C@H](CCc1ccccc1)C(=O)Nc1ccc(-c2cn[nH]c2)cc1 [Example 28, (R)—N-(4-(1H-Pyrazol-4-yl)phenyl)-2-amino-4-phenylbutanamide]",
31.6,17.9,"COc1cc(NC(=O)[C@@H](N)Cc2csc3ccccc23)ccc1-c1cn[nH]c1 [Example 9, (S)-2-amino-3-(benzo[b]thiophen-3-yl)-N-(3-methoxy-4-(1H-pyrazol-4-yl)phenyl) propanamide]",
13.9,37.5,"COc1cc(NC(=O)[C@H](N)Cc2ccccc2Cl)ccc1-c1cn[nH]c1 [Example 19, (R)-2-amino-3-(2-chlorophenyl)-N-(3-methoxy-4-(1H-pyrazol-4-yl)phenyl) propanamide]",
12.6,13.4,"COc1cc(NC(=O)[C@H](N)Cc2cc(F)cc(F)c2)ccc1-c1cn[nH]c1 [Example 14, (R)-2-amino-3-(3,5-difluorophenyl)-N-(3-methoxy-4-(1H-pyrazol-4-yl)phenyl) propanamide]",
8.78,3.25,"COc1cc(NC(=O)[C@H](N)Cc2ccc3ccccc3c2)ccc1-c1cn[nH]c1 [Example 6, (R)-2-amino-N-(3-methoxy-4-(1H-pyrazol-4-yl)phenyl)-3-(naphthalen-2-yl)propanamide]",
